These results are taken from article PMC7534336, “New classes of potent heparanase inhibitors from ligand-based virtual screening” (Journal of Enzyme Inhibition and Medicinal Chemistry, 2020).

Where “and” joins values, the source holds several entries; their conditions need not be identical. Identical values can stand only once. Like-named read-outs stand apart in the source and are kept apart here.

Broadly, the IC50 is the point on the concentration scale where inhibition reaches its midpoint.

The experiment has as its target human GS3 heparanase (Homo sapiens, UniProt Q9Y251). The experiment can be described thus: fondaparinux assay of heparanase enzymatic activity (WST-1 colorimetric). The class given is biochemical. The conditions noted are these: for % inhib @2.5 M ± SD: fixed concentration 2.5 µM (2.5 M [sic]); for % inhib @25 M ± SD: fixed concentration 25 µM (25 M [sic]). The source says:
To determine the activity of the heparanase inhibitors, a homogeneous assay based on the cleavage of the synthetic heparin oligosaccharide fondaparinux (Arixtra; Aspen) was used. The assay measures colorimetrically the appearance of the disaccharide product of heparanase-catalysed fondaparinux cleavage using the tetrazolium salt WST-1. The assay was essentially performed as described[39] with minor modifications. Briefly, Nunc 96-well (Thermo Fisher Scientific) plates were pre-treated with a solution of 4% BSA (bovine serum albumin, Sigma-Aldrich) in phosphate-buffered saline containing 0.05% Tween 20 (PBST), for 2 h at 37 °C, and then washed three times with PBST. […] The IC50 value for each compound was calculated by GraphPad software. Finally, the measurements were corrected by subtracting both the reagent background and the inner absorbance value of test compound.
Supporting Table S1 reports the structures of the fifty-five compounds purchased and tested, with information, for each compound, on the database from which it was retrieved, the reference inhibitor used to retrieve it and the similarity value with the reference inhibitor.
In general terms: Tetrazolium assays rely on reduction of a dye to a coloured formazan, in cell work by metabolically active cells.

Where [1] appears, read: fondaparinux assay on human GS3 heparanase, mean of triplicates, read-out: IC50 (µM) ± SD, heparanase inhibitory activity.
The mark [2] stands for this setting: Table S1, fondaparinux assay on GS3 heparanase, read-out: IC50 (M) ± SD.
Where [3] appears, read: fondaparinux assay on human GS3 heparanase, mean of triplicates.

Sequence of human GS3 heparanase (Q9Y251 other isoform, or with tags, fused parts or gaps): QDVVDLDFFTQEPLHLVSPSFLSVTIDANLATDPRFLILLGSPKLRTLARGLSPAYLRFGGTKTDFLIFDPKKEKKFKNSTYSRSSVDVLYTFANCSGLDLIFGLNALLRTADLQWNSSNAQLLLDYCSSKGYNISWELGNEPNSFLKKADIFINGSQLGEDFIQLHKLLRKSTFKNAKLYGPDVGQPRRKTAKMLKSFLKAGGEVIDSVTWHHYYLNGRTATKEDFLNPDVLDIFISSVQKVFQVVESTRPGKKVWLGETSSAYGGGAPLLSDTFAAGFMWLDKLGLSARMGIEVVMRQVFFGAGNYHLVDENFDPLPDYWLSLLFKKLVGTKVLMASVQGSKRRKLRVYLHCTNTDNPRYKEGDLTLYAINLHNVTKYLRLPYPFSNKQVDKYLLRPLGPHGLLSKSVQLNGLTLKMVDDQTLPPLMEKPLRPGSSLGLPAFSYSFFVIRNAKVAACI

In the case of `O=C(O)/C=C/C(=O)Nc1ccc(Sc2ccc(Oc3ccc(Sc4ccc(NC(=O)/C=C/C(=O)O)cc4)cc3)cc2)cc1` [Compound 35], the IC50 under setting [1] worked out at 0.52 ± 0.02 µM.
As for `O=C(Nc1ccc(O)cc1C(=O)O)c1ccc(Oc2ccc(C(=O)Nc3ccc(O)cc3C(=O)O)cc2)cc1` [Compound 51], for the setting “Table S1”, the “% inhib @2.5 M ± SD” value was found to be 42 ± 6% and the “% inhib @25 M ± SD” value is reported as 77 ± 4%.
In the case of `O=C(Nc1ccc2c(O)c(N=Nc3ccc(N=Nc4ccc(S(=O)(=O)O)cc4)cc3S(=O)(=O)O)c(S(=O)(=O)O)cc2c1)Nc1ccc2c(O)c(N=Nc3ccc(N=Nc4ccc(S(=O)(=O)O)cc4)cc3S(=O)(=O)O)c(S(=O)(=O)O)cc2c1` [Compound 15], under setting [1], the 50% inhibitory concentration (IC50) is 0.93 ± 0.07 µM.
As for `O=C(O)c1cc(C(=O)O)cc(N2C(=O)c3ccc(C(=O)c4ccc5c(c4)C(=O)N(c4cc(C(=O)O)cc(C(=O)O)c4)C5=O)cc3C2=O)c1` [Compound 26], where the note is “Table S1”, the “% inhib @2.5 M ± SD” value amounted to 35 ± 1% and the “% inhib @25 M ± SD” value came out at 99 ± 6%.
With `O=C(Nc1cccc(C(=O)Nc2cc(C(=O)Nc3ccc(S(=O)(=O)O)c4cc(S(=O)(=O)O)cc(S(=O)(=O)O)c34)ccc2F)c1)Nc1cccc(C(=O)Nc2cc(C(=O)Nc3ccc(S(=O)(=O)O)c4cc(S(=O)(=O)O)cc(S(=O)(=O)O)c34)ccc2F)c1` [Compound 10], where the note is “Table S1”, the “% inhib @2.5 M ± SD” value was determined as 39 ± 3% and the “% inhib @25 M ± SD” value is given as 100 ± 1%.
For the compound `O=C(O)CCC(=O)Nc1ccc(Oc2ccc(S(=O)(=O)c3ccc(Oc4ccc(NC(=O)CCC(=O)O)cc4)cc3)cc2)cc1` [Compound 56], where the note is “Table S1”, the “% inhib @2.5 M ± SD” value stood at 20 ± 5% and the “% inhib @25 M ± SD” value stood at 51 ± 5%.
As to `O=C(Nc1nc(-c2ccc(F)cc2)cs1)c1ccc(Oc2ccc(C(=O)Nc3nc(-c4ccc(F)cc4)cs3)cc2)cc1` [Compound 43], where the note is “Table S1”, the “% inhib @2.5 M ± SD” value worked out at 44 ± 1% and the “% inhib @25 M ± SD” value was found to be 67 ± 4%.
With `O=C(Nc1ccc2c(O)c(N=Nc3ccccc3)c(S(=O)(=O)O)cc2c1)Nc1ccc2c(O)c(N=Nc3ccccc3)c(S(=O)(=O)O)cc2c1` [Compound 18], where the note is “Table S1”, the “% inhib @2.5 M ± SD” value amounted to 12 ± 3% and the “% inhib @25 M ± SD” value was found to be 11 ± 3%.
As for `O=C(Nc1ccccc1C(=O)O)c1ccc2c(c1)C(=O)N(c1ccc(S(=O)(=O)c3ccc(N4C(=O)c5ccc(C(=O)Nc6ccccc6C(=O)O)cc5C4=O)cc3)cc1)C2=O` [Compound 24], the IC50 under setting [1] is 1.1 ± 0.13 µM.
With `O=C(Nc1ccc(O)cc1C(=O)O)c1ccc(S(=O)(=O)c2ccc(C(=O)Nc3ccc(O)cc3C(=O)O)cc2)cc1` [Compound 53], under setting [2], the 50% inhibitory concentration (IC50) came out at 5.29 ± 0.84 µM. Further, under setting [3], the “IC50 (µM) ± SD, heparanase inhibitory activity” value was “good inhibitory potencies”.
With `O=C(O)c1ccc(Oc2cccc(N3C(=O)c4ccc(Oc5ccc6c(c5)C(=O)N(c5cccc(Oc7ccc(C(=O)O)c(C(=O)O)c7)c5)C6=O)cc4C3=O)c2)cc1C(=O)O` [Compound 36], the concentration for half-maximal inhibition (IC50) under setting [1] stood at 0.63 ± 0.01 µM.
For the compound `O=C(O)c1ccc2c(c1)C(=O)N(c1cccc(Oc3cccc(Oc4cccc(N5C(=O)c6ccc(C(=O)O)cc6C5=O)c4)c3)c1)C2=O` [Compound 59], under setting [3], the “IC50 (µM) ± SD, heparanase inhibitory activity” value was “good inhibitory potency”. Also, under setting [1], the IC50 was found to be 2.08 ± 0.16 µM.
As for `COc1cc(N=Nc2cccc(S(=O)(=O)O)c2)ccc1NC(=O)Nc1ccc(N=Nc2ccc(O)c(C(=O)O)c2)cc1` [Compound 17], where the note is “Table S1”, the “% inhib @2.5 M ± SD” value is recorded as 14 ± 2% and the “% inhib @25 M ± SD” value is given as 95 ± 1%.
With `O=C(Nc1cccc(-c2nc3ccccc3s2)c1)c1ccc(Oc2ccc(C(=O)Nc3cccc(-c4nc5ccccc5s4)c3)cc2)cc1` [Compound 38], the half-maximal inhibitory concentration (IC50) under setting [2] came out at 5.75 ± 0.05 µM.
Regarding `O=C(Nc1cccc(C(=O)Nc2ccc(S(=O)(=O)O)c3cc(S(=O)(=O)O)cc(S(=O)(=O)O)c23)c1)Nc1cccc(C(=O)Nc2ccc(S(=O)(=O)O)c3cc(S(=O)(=O)O)cc(S(=O)(=O)O)c23)c1` [Compound 9], under “Table S1”, the “% inhib @25 M ± SD” value is given as “Not active”.
In the case of `O=C(Nc1ccc(Sc2ccc(Oc3ccc(Sc4ccc(NC(=O)c5cccc(F)c5)cc4)cc3)cc2)cc1)c1cccc(F)c1` [Compound 47], for the setting “Table S1”, the “% inhib @2.5 M ± SD” value was 30 ± 3% and the “% inhib @25 M ± SD” value is given as 66 ± 5%.
Regarding `CC(C)(c1ccc(Oc2ccc3c(c2)C(=O)N(c2ccc(C(=O)O)cc2)C3=O)cc1)c1ccc(Oc2ccc3c(c2)C(=O)N(c2ccc(C(=O)O)cc2)C3=O)cc1` [Compound 49], the “IC50 (µM) ± SD, heparanase inhibitory activity” value under setting [3] is “significant inhibitory potencies”. Further, under setting [1], the IC50 was determined as 2.35 ± 0.23 µM.
As for `O=C(O)c1cc(NC(=O)c2ccc(S(=O)(=O)c3ccc(C(=O)Nc4cc(C(=O)O)cc(C(=O)O)c4)cc3)cc2)cc(C(=O)O)c1` [Compound 52], for the setting “Table S1”, the “% inhib @2.5 M ± SD” value was determined as 45 ± 7% and the “% inhib @25 M ± SD” value turned out to be 54 ± 8%.
In the case of `O=C(Nc1ccc(Br)cc1C(=O)O)c1ccc(Oc2ccc(C(=O)Nc3ccc(Br)cc3C(=O)O)cc2)cc1` [Compound 21], under setting [1], the half-maximal inhibitory concentration (IC50) is 2.66 ± 0.32 µM.
On to `O=C(O)c1ccccc1N1C(=O)c2ccc(Oc3ccc(Oc4ccc5c(c4)C(=O)N(c4ccccc4C(=O)O)C5=O)cc3)cc2C1=O` [Compound 58], for which, under setting [1], the concentration for half-maximal inhibition (IC50) is < 5 µM and 3.78 µM.
`O=C(O)c1ccc(Oc2ccc3c(c2)C(=O)N(c2ccc(S(=O)(=O)c4ccc(N5C(=O)c6ccc(Oc7ccc(C(=O)O)cc7)cc6C5=O)cc4)cc2)C3=O)cc1` [Compound 27]: where the note is “Table S1”, the “% inhib @2.5 M ± SD” value was “Not active” and the “% inhib @25 M ± SD” value worked out at 70 ± 6%.
For `O=C(CSc1nc2ccccc2[nH]1)Nc1ccc(-c2nc3cc(NC(=O)CSc4nc5ccccc5[nH]4)ccc3o2)cc1` [Compound 33], under “Table S1”, the “% inhib @2.5 M ± SD” value is on record as 36 ± 5% and the “% inhib @25 M ± SD” value is on record as 58 ± 1%.
With `O=C(O)c1ccc2c(c1)C(=O)N(NC(=O)c1ccc(Oc3ccc(C(=O)NN4C(=O)c5ccc(C(=O)O)cc5C4=O)cc3)cc1)C2=O` [Compound 25], the “% inhib @25 M ± SD” value (Table S1) is recorded as “Not active”.
Turning to `O=C(O)c1ccc(NC(=O)c2ccc(S(=O)(=O)c3ccc(C(=O)Nc4ccc(C(=O)O)cc4)cc3)cc2)cc1` [Compound 55], for the setting “Table S1”, the “% inhib @2.5 M ± SD” value was found to be 30 ± 4% and the “% inhib @25 M ± SD” value is recorded as 43 ± 7%.
Take `O=C(Nc1cccc(C(=O)c2ccccc2)c1)c1ccc(Oc2ccc(C(=O)Nc3cccc(C(=O)c4ccccc4)c3)cc2)cc1` [Compound 40]: the IC50 under setting [2] was greater than 5 µM.
`O=C(O)c1cc(NC(=O)c2ccc(Oc3ccc(C(=O)Nc4cc(C(=O)O)cc(C(=O)O)c4)cc3)cc2)cc(C(=O)O)c1` [Compound 50]: the “IC50 (µM) ± SD, heparanase inhibitory activity” value under setting [3] is listed as “good inhibitory potencies”. In addition, under setting [1], the concentration for half-maximal inhibition (IC50) turned out to be 2.01 ± 0.13 µM.
Take `O=C(Nc1ccc(-c2nc3ccccc3o2)cc1)c1ccc(Oc2ccc(C(=O)Nc3ccc(-c4nc5ccccc5o4)cc3)cc2)cc1` [Compound 39]: where the note is “Table S1”, the “% inhib @2.5 M ± SD” value stood at 60 ± 21% and the “% inhib @25 M ± SD” value was determined as 63 ± 16%.
`Nc1ccc2cc(S(=O)(=O)O)cc(O)c2c1N=Nc1ccc(NC(=O)Nc2ccc(N=Nc3c(N)ccc4cc(S(=O)(=O)O)cc(O)c34)c(S(=O)(=O)O)c2)cc1S(=O)(=O)O` [Compound 20]: the concentration for half-maximal inhibition (IC50) under setting [1] came to 1.76 ± 0.23 µM.
On to `CC(C)(c1ccc(Oc2ccc3c(c2)C(=O)N(c2cccc(C(=O)O)c2)C3=O)cc1)c1ccc(Oc2ccc3c(c2)C(=O)N(c2cccc(C(=O)O)c2)C3=O)cc1` [Compound 48], for which the “IC50 (µM) ± SD, heparanase inhibitory activity” value under setting [3] is given as “significant inhibitory potencies”. For the same compound, the IC50 under setting [1] was 0.91 ± 0.1 µM.
Consider `O=C(O)c1cccc(NC(=O)c2ccc(S(=O)(=O)c3ccc(C(=O)Nc4cccc(C(=O)O)c4)cc3)cc2)c1` [Compound 54], for which, where the note is “Table S1”, the “% inhib @2.5 M ± SD” value is listed as 22 ± 7% and the “% inhib @25 M ± SD” value was determined as 72 ± 1%.
In the case of `Cc1c(NS(=O)(=O)c2cc(C(=O)Nc3ccc(-c4nc5ccccc5[nH]4)cc3)ccc2Cl)c(=O)n(-c2ccccc2)n1C` [Compound 28], where the note is “Table S1”, the “% inhib @2.5 M ± SD” value amounted to 14 ± 6% and the “% inhib @25 M ± SD” value is reported as 59 ± 5%.
As for `O=C(Nc1cccc(Oc2ccc(S(=O)(=O)c3ccc(Oc4cccc(NC(=O)c5ccc(F)cc5)c4)cc3)cc2)c1)c1ccc(F)cc1` [Compound 46], under setting [2], the concentration for half-maximal inhibition (IC50) was greater than 5 µM.
For the compound `O=C(O)c1ccc(N2C(=O)c3ccc(Oc4cccc(Oc5ccc6c(c5)C(=O)N(c5ccc(C(=O)O)cc5)C6=O)c4)cc3C2=O)cc1` [Compound 60], for the setting “Table S1”, the “% inhib @2.5 M ± SD” value worked out at 53 ± 12% and the “% inhib @25 M ± SD” value is 65 ± 4%.
For `COc1cc(C(=O)Nc2ccc(-c3nc4cc(NC(=O)c5cc(OC)c(OC)c(OC)c5)ccc4[nH]3)cc2)cc(OC)c1OC` [Compound 30], where the note is “Table S1”, the “% inhib @2.5 M ± SD” value is 11 ± 4% and the “% inhib @25 M ± SD” value worked out at 1 ± 1%.
Regarding `O=C(Nc1ccccc1Oc1ccc(C(=O)O)c(C(=O)O)c1)c1ccc(Oc2ccc(C(=O)Nc3ccccc3Oc3ccc(C(=O)O)c(C(=O)O)c3)cc2)cc1` [Compound 22], for the setting “Table S1”, the “% inhib @2.5 M ± SD” value was 21 ± 1% and the “% inhib @25 M ± SD” value is 60 ±1%.
Turning to `O=C(Nc1c[nH]c(=O)[nH]c1=O)c1ccc2c(c1)C(=O)N(c1ccc(Oc3ccc(N4C(=O)c5ccc(C(=O)Nc6c[nH]c(=O)[nH]c6=O)cc5C4=O)cc3)cc1)C2=O` [Compound 45], under “Table S1”, the “% inhib @2.5 M ± SD” value is reported as 41 ± 3% and the “% inhib @25 M ± SD” value is reported as 67 ± 4%.
In the case of `O=C(Nc1nc(-c2ccc3ccccc3c2)cs1)c1ccc(Oc2ccc(C(=O)Nc3nc(-c4ccc5ccccc5c4)cs3)cc2)cc1` [Compound 41], where the note is “Table S1”, the “% inhib @2.5 M ± SD” value is 54 ± 6% and the “% inhib @25 M ± SD” value came out at 76 ± 2%.
For the compound `O=C(Nc1ccc(Oc2ccc(NC(=O)c3ccc4c(c3)C(=O)N(c3nccs3)C4=O)cc2)cc1)c1ccc2c(c1)C(=O)N(c1nccs1)C2=O` [Compound 44], for the setting “Table S1”, the “% inhib @2.5 M ± SD” value amounted to 62 ± 2% and the “% inhib @25 M ± SD” value was 60 ± 5%.
